Experimental data as given in patent US6768044B1, “Chimeric hydroxyl-phenyl pyruvate dioxygenase, DNA sequence and method for obtaining plants containing such a gene, with herbicide tolerance” (priority 2000, dated 2004).

Tests used:
[1] = system: Pseudomonas fluorescens A32 HPPD; format: cell-based; details: E. coli culture containing vector pRP C; for end concentration giving identical results (total absence of staining): compound in DMSO solution
From the text: pRP C: The vector pRP A (which is described in the application WO 96/38567), which contains a genomic DNA fragment and the encoding region of the Pseudomonas fluorescens A32 HPPD gene, was digested with NcoI, purified and then ligated into the expression vector pKK233-2 (Clontech) which itself had been digested with NcoI, the only cloning site of this vector. The orientation of the gene in the resulting vector pRP C, which allows expression under-the control of the trc promoter, was checked.
(§1) A YT-broth-type culture medium with 1% agarose (Gibco BRL ultra pure) and 5 mM L-tyrosine (Sigma), which contains the selection agent for the above vector pRP C is poured into 96-well plates at 100 μl per well. 10 μl of an E. coli culture in the exponential growth phase which contains the vector pRP C is applied to each well.
A series was established with identical culture medium containing different concentrations (0 mM to 14 mM) of 2-cyano-3-cyclopropyl-l-(2-methylsulphonyl-4-trifluoromethylphenyl)-propane-i,3-dione (EP 0 496 631) which was solubilized in water and brought to pH 7.5. This molecule is a diketonitrile, known as an efficient inhibitor of HPPD activity (Pallett, K. E. et al. 1997. Pestic. Sci. 50, 83-84).
The end concentrations of the two molecules in DMSO solution are 3.5 mM and 7 mM, respectively.

HPPD activity = assay: In vivo activity of chimeric HPPDs (brown staining of isolated colonies); format: cell-based, E. coli; details: scale from 1 to 10, 10 being the most intense, reflects HPPD activity
Experimental: as §1
The brown staining was scored on a scale from 1 to 10, 10 being the most intense (as described in Example 1), by comparison with HPPDs derived from Arabidopsis thaliana (FAA) and Daucus carota (FCC).

Molecule: CCOc1c(S(=O)(=O)CC)ccc(C(=O)C2C(=O)CC(C)CC2=O)c1Cl (stereo not shown) [2-(2-chloro-3-ethoxy-4-(ethyl-sulphonyl)benzoyl)-5-methyl-1,3-cyclohexadione]
- end concentration giving identical results (total absence of staining) [1]: 7 mM

Molecule: CS(=O)(=O)c1cc(C(F)(F)F)ccc1C(=O)C(C#N)C(=O)C1CC1 (stereo not drawn) [2-cyano-3-cyclopropyl-l-(2-methylsulphonyl-4-trifluoromethylphenyl)-propane-i,3-dione]
- concentration at which a total absence of staining is observed ([1]; YT broth, 1% agarose, 5 mM L-tyrosine, 16 hours at 37° C., compound solubilized in water, pH 7.5, series 0 mM to 14 mM): 7 mM

Molecule: CSc1ccc(C(=O)C(C#N)C(=O)C2CC2)c(S(C)(=O)=O)c1 (stereo not shown) [2-cyano-3-cyclopropyl-1-(2-methylsulphonyl-4-(methylthio)phenyl)-propane-1,3-dione]
- end concentration giving identical results (total absence of staining) [1]: 3.5 mM

B1: FAA: HPPD derived from Arabidopsis thaliana, used for comparison (protein, UniProt P93836 1-445, looked up)
4-hydroxyphenylpyruvate …: MGHQNAAVSENQNHDDGAASSPGFKLVGFSKFVRKNPKSDKFKVKRFHHIEFWCGDATNVARRFSWGLGMRFSAKSDLSTGNMVHASYLLTSGDLRFLFTAPYSPSLSAGEIKPTTTASIPSFDHGSCRSFFSSHGLGVRAVAIEVEDAESAFSISVANGAIPSSPPIVLNEAVTIAEVKLYGDVVLRYVSYKAEDTEKSEFLPGFERVEDASSFPLDYGIRRLDHAVGNVPELGPALTYVAGFTGFHQFAEFTADDVGTAESGLNSAVLASNDEMVLLPINEPVHGTKRKSQIQTYLEHNEGAGLQHLALMSEDIFRTLREMRKRSSIGGFDFMPSPPPTYYQNLKKRVGDVLSDDQIKECEELGILVDRDDQGTLLQIFTKPLGDRPTIFIEIIQRVGCMMKDEEGKAYQSGGCGGFGKGNFSELFKSIEEYEKTLEAKQLVG
- brown staining score (HPPD activity): 10
